In patent US5198542A, “DNA encoding a pitvitary adenylate cyclase activating protein and use thereof” (Takeda Chemical Industries, Inc., priority 1989, dated 1993):
Like-named read-outs stand apart in the source and are kept apart here. Ends that are not written are not given here.

Columns and labels:
[1] = hypotensive activity in male Wistar rats under nembutal anesthesia; type: in vivo, rat
Experimental: Using male Wistar rats having a body weight of 350 g under nembutal anesthesia, the hypotensive activity was measured.

[2] = system: adenylate cyclase; conditions: rat pituicytes

| Substance | hypotensive activity ([1]; dosage 0.3 n mole/kg) [mm Hg] | hypotensive activity ([1]; dosage 1.0 n mole/kg) [mm Hg] | hypotensive activity ([1]; dosage 3.0 n mole/kg) [mm Hg] | cAMP (M ± SEM) ([2]; peptide 10^-7 M) [p mol/ml] | cAMP (M ± SEM) ([2]; peptide 10^-8 M) [p mol/ml] | cAMP (M ± SEM) ([2]; peptide 10^-9 M) [p mol/ml] | cAMP (M ± SEM) ([2]; peptide 10^-10 M) [p mol/ml] | cAMP (M ± SEM) ([2]; peptide 10^-11 M) [p mol/ml] | cAMP (M ± SEM) ([2]; peptide 10^-12 M) [p mol/ml] |
| --- | --- | --- | --- | --- | --- | --- | --- | --- | --- |
| PACAP38 NH2: PACAP38 NH2 synthesized on p-methyl BHA resin according to the amino acid sequence of PACAP38 (Example 5) (HSDGIFTDSYSRYRKQMAVKKYLAAVLGKRYKQRVKNK-NH2; UniProt P18509 132-169, looked up) | 3.2 ± 1.9 | 17.4 ± 2.4 | 29.8 ± 3.6 |  |  |  |  |  |  |
| Syn.27p-NH2: synthesized 27-NH2, the 1st to 27th positions of mature PACAP38, formula (1") | 14.5 ± 3.1 | 51.9 ± 9.6 | 4.1 | 9.20 ± 0.20 | 9.20 ± 0.00 | 7.90 ± 0.30 | 4.00 ± 0.20 | 2.55 ± 0.15 | 2.05 ± 0.15 |
